The results in this text go back to article PMC7955114, “Discovery of fungal surface NADases predominantly present in pathogenic species” (Nature Communications, 2021).

The target of data set [1] is T1, AfNADase (Aspergillus fumigatus, UniProt Q4WL81).
T1 construct: gene nadA; N-glycosylated at N45, N95, N118; about 30 kDa; homodimer; thumb 20-117, TNT palm domain 117-234; mutants also in 293 cells (C-terminal His6)
Briefly: X-ray structure, crystals soaked with NAD+. The conditions noted are these: active site of molecule A, EGTA-treated protein, Ca2+ absent, formed from 10 mM NAD+ soak. In kind it is binding.

The target in data set [2] is T1, AfNADase. Description: X-ray co-crystal structure. Type of data set: binding. The settings on record: non-hydrolysable substrate analogue, active site of molecule B; 5 mM BAD co-crystallized, 0.1 M sodium acetate pH 5, CaCl2.
Data set [3] addresses T2, NcNADase (Neurospora crassa, UniProt Q7S936).
T2 construct: gene NCU07948; secreted from transiently transfected 293 cells, codon-optimized, in pCMV-Flag5a (Flag tag), anti-FLAG purified, N-glycosylated
Briefly: HPLC cleavage assay. In kind it is biochemical. The conditions noted are these: 200 µM substrate, 50 mM Tris-HCl pH 8.0, 0.5 mM CaCl2, 150 mM NaCl, 20 °C (conditions described for AfNADase).

Data set [4] concerns NC(=O)c1ccc[n+]([C@@H]2O[C@H](COP(=O)(O)OP(=O)(O)OC[C@H]3O[C@@H](n4cnc5c(N)ncnc54)[C@H](OP(=O)(O)O)[C@@H]3O)[C@@H](O)[C@H]2O)c1. Description: purified protein. The settings on record: 500 µM substrate, 0.2 nM enzyme, 25 mM sodium phosphate pH 5.8, 50 mM NaCl, 5 % D2O, 23 °C.
Data set [5] deals with NC(=O)c1ccc[n+]([C@@H]2O[C@H](COP(=O)(O)OP(=O)(O)OC[C@H]3O[C@@H](n4cnc5c(N)ncnc54)[C@H](O)[C@@H]3O)[C@@H](O)[C@H]2O)c1. Briefly: purified protein. The settings on record: 500 µM substrate, 0.2 nM enzyme, 25 mM sodium phosphate pH 5.8, 50 mM NaCl, 5 % D2O, 23 °C.
Data set [6] deals with the molecule itself. Briefly: SEC; purified recombinant AfNADase; conditions of the analysis not told in the text (Supplementary Fig. 2C-F).

T2 sequence (Q7S936 20-243): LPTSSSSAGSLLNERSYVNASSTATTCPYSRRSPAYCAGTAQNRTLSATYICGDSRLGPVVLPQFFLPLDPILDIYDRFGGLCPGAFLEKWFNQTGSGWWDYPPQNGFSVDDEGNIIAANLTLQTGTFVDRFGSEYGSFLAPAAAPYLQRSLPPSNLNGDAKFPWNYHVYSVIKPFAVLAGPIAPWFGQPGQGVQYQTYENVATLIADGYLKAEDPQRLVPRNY

Regarding `Nc1ncnc2c1ncn2[C@@H]1O[C@H](COP(=O)(O)OP(=O)(O)OC[C@H]2OC(O)[C@H](O)[C@@H]2O)[C@@H](O)[C@H]1O` (some centres unmarked) [ADPR], in data set [1] (bound together with nicotinamide), the “X-ray structure, crystals soaked with NAD+” value was “the reaction products, Nam and ADPR, were bound to a putative active site”.
Take `NC(=O)c1cccc([C@@H]2O[C@H](COP(=O)(O)OP(=O)(O)OC[C@H]3O[C@@H](n4cnc5c(N)ncnc54)[C@H](O)[C@@H]3O)[C@@H](O)[C@H]2O)c1` [BAD]: in data set [2], the X-ray co-crystal structure result was “We were able to co-crystallize AfNADase with BAD bound to the active site”.
`NC(=O)c1ccc[n+]([C@@H]2O[C@H](COP(=O)(O)OP(=O)(O)OC[C@H]3O[C@@H](n4cnc5c(N)ncnc54)[C@H](OP(=O)(O)O)[C@@H]3O)[C@@H](O)[C@H]2O)c1` [NADP^+]: the HPLC cleavage assay entry in data set [3] is “Both AfNADase and NcNADase cleaved NAD^+ and NADP^+”.
Take `NC(=O)c1ccc[n+]([C@@H]2O[C@H](COP(=O)(O)OP(=O)(O)OC[C@H]3O[C@@H](n4cnc5c(N)ncnc54)[C@H](O)[C@@H]3O)[C@@H](O)[C@H]2O)c1` [NAD^+]: the HPLC cleavage assay entry in data set [3] is “Both AfNADase and NcNADase cleaved NAD^+ and NADP^+”.
With `NC(=O)c1cccnc1` [Nam], in data set [1] (bound together with ADP-ribose), the “X-ray structure, crystals soaked with NAD+” value was “the reaction products, Nam and ADPR, were bound to a putative active site”.
Turning to AfNADase (Aspergillus fumigatus Af293), the Km worked out at 106 ± 27.1 µM in data set [4] and 119.7 ± 40.8 µM in data set [5].

B1: Aspergillus fumigatus NADase (AfNADase), recombinant, from Sf9 insect cells (enzyme)
chain: LQHTEDSLFPARCWPDPCAGITFQNDTYVCGDPRLGPVVLPQKFPLNNELRTYARFGALCPAEFLDKWATDVAPNGTYIYPPANGFALDTEEQPILGNATLPVGMKLDRFGSEYGTFLAPLGAPYIERSLPPSNLNTFDGMYPYNYHVYQVTKEFVVGLGPIAPWFEQPGMGTQFVTYTNVLGLIDDGYLRRLDESEYDEKVEYSNPYTPGPNQ
modifications: N-linked glycosylation at N45, N95 and N118; disulfide bridges C33-80 and C38-50
notes: also called A. fumigatus NADase; gene product AFUA_6G14470
With B1, the “stoichiometry N” value in data set [6] turned out to be 2.

The term Km denotes the substrate concentration at which the rate is half of its maximum. As usually defined, the stoichiometry N is a count of units in the complex or per binding partner.
